“And” between values parts separate entries of the source, which are not always exact repeats. Equal entries are not always repeated. “Also recorded” adds a separate entry of the source. Where two headings read alike, the source gives them in different places.
Experiments:
stability in mouse serum = type: in vitro ADME; details: remaining compound after 4 h
C57BL/6J mice = assay: novel object recognition test; type: in vivo, mouse; details: 1 mg/kg ip; tested at 24 and 96 h
Method: Procedures for animal experiments were conducted in adherence to the European Communities Council Directive (86/609/ECC) and Spanish regulations (BOE 252/34367-91, 2005) for the use of laboratory animals. Experiments were performed on 3 month old male mice with a C57BL/6J background. Eight mice were used for each experimental condition. Mice were maintained on a 12 h light/dark cycle (lights on at 08:00 am), with water and food provided ad libitum. Object recognition test was performed according to a previously reported method.[58] Briefly, mice were first habituated to an empty open field apparatus (40 × 40 × 40 cm) for 5 min. After the habituation session, mice received an ip injection of compound 26 (1 mg/kg) or vehicle (NaCl 0.9%). Twenty minutes later, mice were placed again in the open field, which now included two identical copies of an object (“familiar” object) located in two adjacent corners, and mice were allowed to explore for 10 min (acquisition session). […] The total time of object exploration (defined as the mouse touching an object with its nose or forepaws) was scored, and object recognition memory was calculated by the following discrimination ratio: time exploring the new object—time exploring the familiar object)/total time exploring both objects.

[1] = plasma, brain and CSF levels after a single oral dose in mice; type: in vivo, mouse
Method: Prior to the evaluation of the new D1R PAM 26 in animal models, the in vivo cerebrospinal fluid (CSF) and brain permeability were studied. […] Concentrations in the CSF and brain were quantifiable up to 4 h. Brain-to-plasma concentration ratios were in the range of 0.55–1.15 between 0.5 and 4 h and CSF-to-plasma concentration ratio in the range of 0.13–0.21 between 0.5 and 4 h.
Figure 5 Compound levels in the plasma, brain, and CSF of mouse administered with 5 mg/kg (po) of compound 26. Horizontal dotted line indicates the EC50 value of the compound.

[2] = plasma and brain concentrations in the locomotor activity study; type: in vivo, mouse; details: 30 mg/kg po; for concentration at 30 min / concentration at 60 min: male, C57BL/6, mouse, po, 30 mg/kg
Method: Regarding the PD model, reserpine is an alkaloid known to induce hypomobility/akinesia and rigidity, and reserpinized rodents are widely used as a preclinical model for PD.
The study was carried out in male C57BL/6 wild-type (22–25 g) mice that were acclimatized for 5 days. Animals were randomized based on body weight into six groups (G1 to G6), ten animals per group (n = 10), being group G1 the naïve control group. Animals were fed with standard diet ad libitum. Animals were dosed with subcutaneous administration of reserpine (2.5 mg/kg in DMSO/saline) and after 20 h they were treated with a vehicle (10 mL/kg, po), compound 26 (30 mg/kg, po), L-DOPA (100 or 400 mg/kg, ip) + carbidopa (100 mg/kg, ip) and/or their combination, as indicated in Figure 7. The vehicle employed for compound 26 administration was 5% NMP + 5% solutol HS-15 + 90% normal saline. L-DOPA and carbidopa were administered 30 min prior to start of locomotor activity recording. Compound 26 was administered and 15 min later, mice were placed in the locomotor activity cage to measure the locomotor activity for 60 min (total distance travelled) using ALL Maze version 0.5 automated software enabled with video tracking system. After the activity sessions, raw data were reduced using ALL Maze 5.0 software and Microsoft Excel. Statistical analysis was done with GraphPad Prism-5 using one way ANOVA followed by Dunnett’s test/Tukey’s post hoc test and/or two-way ANOVA followed by Bonferroni post hoc test. Data were considered statistically significant, if P value was less than 0.05. […]
Table S2.Plasma and brain concentrations achieved for compound 26in the locomotor
Plasma concentration (ng/mL) Brain concentration (ng/mL)
Animal 30 min 60 min Animal 30 min 60 min

[3] = tested on: reserpinized C57BL/6 mice; assay: locomotor activity in reserpinized mice; type: in vivo, mouse
Method: The study was carried out in male C57BL/6 wild-type (22–25 g) mice that were acclimatized for 5 days. Animals were randomized based on body weight into six groups (G1 to G6), ten animals per group (n = 10), being group G1 the naïve control group. Animals were fed with standard diet ad libitum. Animals were dosed with subcutaneous administration of reserpine (2.5 mg/kg in DMSO/saline) and after 20 h they were treated with a vehicle (10 mL/kg, po), compound 26 (30 mg/kg, po), L-DOPA (100 or 400 mg/kg, ip) + carbidopa (100 mg/kg, ip) and/or their combination, as indicated in Figure 7. The vehicle employed for compound 26 administration was 5% NMP + 5% solutol HS-15 + 90% normal saline. L-DOPA and carbidopa were administered 30 min prior to start of locomotor activity recording. Compound 26 was administered and 15 min later, mice were placed in the locomotor activity cage to measure the locomotor activity for 60 min (total distance travelled) using ALL Maze version 0.5 automated software enabled with video tracking system. After the activity sessions, raw data were reduced using ALL Maze 5.0 software and Microsoft Excel. Statistical analysis was done with GraphPad Prism-5 using one way ANOVA followed by Dunnett’s test/Tukey’s post hoc test and/or two-way ANOVA followed by Bonferroni post hoc test. Data were considered statistically significant, if P value was less than 0.05.

For `O=Cc1ccc(-c2ccccc2OCF)cc1` [Compound 3, 2′-(Fluoromethoxy)[1,1′-biphenyl]-4-carbaldehyde], the “mouse serum stability (%)” value (stability in mouse serum) was 50%.
In the case of `CS(=N)(=O)c1ccc(-c2ccccc2OCF)cc1` (stereo not drawn) [Compound 26, 2-(Fluoromethoxy)-4′-(S-methanesulfonimidoyl)-1,1′-biphenyl], the “memory in the novel object recognition test” value (C57BL/6J mice) is reported as “increases memory trace; also recorded: Enhanced memory”, the “CSF-to-plasma free concentration ratio” value ([1]; 5 mg/kg po) is reported as “approximately 1” and the “time up to which CSF concentrations were quantifiable” value ([1]; 5 mg/kg po, male BALB/c mice) is reported as 4 h. The “time up to which brain concentrations were quantifiable” value ([1]; 5 mg/kg po, male BALB/c mice) was 4 h, the “time up to which plasma concentrations were quantifiable” value ([1]; 5 mg/kg po, male BALB/c mice) was 8 h and the Kp ([1]; male, BALB/c, mouse, CSF and plasma, 5 mg/kg po, between 0.5 and 4 h, read-out: CSF-to-plasma concentration ratio) was 0.13 to 0.21. For the same compound, the Kp at 4 h ([1]; male, BALB/c, mouse, brain and plasma, 5 mg/kg po, between 0.5 and 4 h, read-out: brain-to-plasma concentration ratio) was 0.55 to 1.15, the Tmax at 8 h ([1]; mouse, plasma, 5 mg/kg single oral dose, male BALB/c mice) was 30 min and the “Brain concentration (ng/mL), individual animals 1-3” value ([2]; 30 min) was 7185.33 ng/mL and 5537.43 ng/mL. For the same compound, the “Plasma concentration (ng/mL), individual animals 1-3” value ([2]; 30 min) was 9994.87 ng/mL and 7753.96 ng/mL, the “Brain concentration (ng/mL), individual animals 1-3” value ([2]; 60 min) was 5552.94 ng/mL and 2620.14 ng/mL and 4178.34 ng/mL and the “Plasma concentration (ng/mL), individual animals 1-3” value ([2]; 60 min) was 6716.72 ng/mL and 6187.65 ng/mL and 1662.96 ng/mL. The concentration at 30 min ([2]; brain, 30 min, read-out: Brain concentration (ng/mL), individual animals 1-3) was 7340 ng/mL, the concentration at 30 min ([2]; brain, 30 min, read-out: Brain concentration (ng/mL), mean) was 6690 ng/mL and the concentration at 60 min ([2]; brain, 60 min, read-out: Brain concentration (ng/mL), mean) was 4120 ng/mL. It also gave a concentration at 30 min ([2]; plasma, 30 min, read-out: Plasma concentration (ng/mL), individual animals 1-3) of 9690 ng/mL, a concentration at 30 min ([2]; plasma, 30 min, read-out: Plasma concentration (ng/mL), mean) of 9150 ng/mL and a concentration at 60 min ([2]; plasma, 60 min, read-out: Plasma concentration (ng/mL), mean) of 4860 ng/mL. The “mouse serum stability (%)” value (stability in mouse serum) was 93%, the melting point was 144 to 145 °C and the “adverse effects observed in the animals” value ([3]; after oral dose administration, 30 mg/kg) was “no sign of adverse effects”. For the same compound, the “effect on locomotor activity in combination with L-DOPA” value ([3]; reserpine 2.5 mg/kg sc, 26 30 mg/kg po plus L-DOPA 100 or 400 mg/kg ip) was “moderate synergistic effect” and the “recovery of decreased locomotor activity, substance alone” value ([3]; reserpine 2.5 mg/kg sc, 26 30 mg/kg po, L-DOPA 100 or 400 mg/kg ip) was “small recovery of decreased locomotor activity”.

Reference: PMC9511493, “2-(Fluoromethoxy)-4′-(S-methanesulfonimidoyl)-1,1′-biphenyl (UCM-1306), an Orally Bioavailable Positive Allosteric Modulator of the Human Dopamine D1 Receptor for Parkinson’s Disease” (Journal of Medicinal Chemistry, 2022)
